Source: patent US20260355251A1, “COMPOSITION FOR PROMOTING HAIR GROWTH” (Idea Therapeutics SL, priority 2023, published 2026)

Tests used:
[1] = system: AGA Model; test: Macroscopic blind assessment of hair growth in DHT-induced AGA model mice (Example 5); type: in vivo, C57BL6 mice (males); conditions: male mice, day 21, intradermal on day 0 and day 3, ATP 100 μM
Method: The compositions for promoting hair growth of the invention were tested in vivo in mice, according to the following procedure.
A total of 45 6-week-old C57BL6 mice (males) from Charles River Laboratories were used.
The animals were acclimatized for 6 days, and they were administered 1 mg of DHT (5α-androstan-17β-ol-3-one, Sigma) in 100 μL of 50% DMSO (Merck)/50% Isotonic Saline Serum (Fresenius Kabi) subcutaneously for […] (5 days a week), resulting 19 administrations, instead of 20, because the dose was omitted on day 21, when the final assessment of hair growth took place. The administration of DHT began at day-4 of the testing.
The concentration of ATP in Groups 3, 4, 5 and 6 was 100 μM.
After 4 days of administration of the DHT solution (day 0), the target area was depilated using an electric shaver in the area delimited by a template. Subsequently, depilatory cream was applied with the aim of uniformizing the beginning of the anagen phase in all mice. This procedure was performed using inhalation sedation with 2% Isoflurane, maintaining the body temperature of the animals with an electric blanket and an infrared lamp. (FIG. 1). […]

[2] = system: hair follicle cultures; conditions: between ATP and adenosine; cited from earlier work
[3] = system: androgen receptors; conditions: hair follicles; cited from earlier work

Nc1ncnc2c1ncn2[C@@H]1O[C@H](COP(=O)(O)OP(=O)(O)OP(=O)(O)O)[C@@H](O)[C@H]1O [ATP non-encapsulated, adenosine triphosphate]
hair growth level: Intense (% of mice) ([1]; ADSCs high 4 × 10^6, low 1 × 10^6): 80%
hair growth level: Moderate (% of mice) ([1]; ADSCs high 4 × 10^6): 20%

Nc1ncnc2c1ncn2[C@@H]1O[C@H](COP(=O)(O)OP(=O)(O)OP(=O)(O)O)[C@@H](O)[C@H]1O [ATP, adenosine triphosphate]
synergistic action on hair growth of hair follicle cultures [2]: synergistic action

C[C@]12CCC(=O)C[C@@H]1CC[C@@H]1[C@@H]2CC[C@]2(C)[C@@H](O)CC[C@@H]12 [DHT, 5α-androstan-17β-ol-3-one]
affinity towards androgen receptors [3]: higher affinity towards androgen receptors in the hair follicles

Nc1ncnc2c1ncn2[C@@H]1O[C@H](CO)[C@@H](O)[C@H]1O [adenosine]
synergistic action on hair growth of hair follicle cultures [2]: synergistic action
